One test deals with pERK level in H358 cells. Nature of the test: pERK and ERK protein content assay in H358 cells (ELISA). As to conditions: Homo sapiens, NCI-H358, compound 1 μM, 24 h, pERK/ERK ratio compared with DMSO group, read-out: Inhibition rate (%) of pERK level. Format: cell-based. In a few lines:
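Percent inhibition of pERK relative to DMSO, from the ELISA pERK/ERK ratio in lysed H358 cells. Compound applied at 1 μM for 24 h after one day of growth.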
A general note: In an ELISA, binding on a coated surface is turned into a signal by an enzyme label.

In another test the test system is H358 cells. Nature of the test: Antiproliferative activity against H358 cells (Cell Titer Glow, ultra-low attachment plate). Format: cell-based. Conditions: Homo sapiens, NCI-H358, 72 h, 96-well ultra-low attachment plate, three days after addition of compound, Cell Titer Glow. As for the experimental part: 2500 H358 cells were seeded in a 96-well ultra-low attachment plate (corning, 7007). After one day of growth, a serially diluted compound (a maximum concentration of 5 μM, 5-fold dilution, a total of five doses) was added. Three days after the addition of the compound, Cell Titer Glow (Promega, G9681) was added to evaluate pellet growth, and the IC50 value was calculated.

Experimental findings from US12479843B2, “Spiro ring-containing quinazoline compounds” (WIGEN BIOMEDICINE TECHNOLOGY (SHANGHAI) CO., LTD., priority 2019, dated 2025) are described below.

As usually defined, the inhibition is the percentage by which the read-out fell short of the control. Usually IC50 stands for the concentration at which inhibition is half-maximal. A high value points to a need for much substance.

Bounds are passed on as bounds.

As for `C=CC(=O)N1CC2(CCN(c3nc(OC[C@@H]4COCCN4C)nc4c(OCC(F)(F)F)c(-c5c(C)ccc6[nH]ncc56)c(C5CC5)cc34)CC2)C1` [Compound 115], the inhibition at 1 µM in the test with pERK level in H358 cells was in the range of 50 to 90%. The IC50 in the test with H358 cells lay within 300 to 1000 nM.

With `C=CC(=O)N1CC2(CCN(c3nc(N4CC(N5CCC5)C4)nc4c(OCC(F)(F)F)c(-c5c(C)ccc6[nH]ncc56)c(C(=C)C)cc34)CC2)C1` [Compound 320], the inhibition at 1 µM in the test on pERK level in H358 cells was > 90%. Moreover, the IC50 in the test on H358 cells is < 300 nM.

For the compound `C=CC(=O)N1CCC2(CC1)CN(c1nc(OC3CCN(CCOC)CC3)nc3c(OCC(F)(F)F)c(-c4c(C)ccc5[nH]ncc45)c(C4CC4)cc13)C2` [Compound 27], the inhibition at 1 µM in the test on pERK level in H358 cells was 50 to 90%. Besides, in the test on H358 cells, the IC50 is 300 to 1000 nM.

As for `C=C(C(=O)N1CC2(CCN(c3nc(OC4CCN(CCOC)CC4)nc4c(OCC(F)(F)F)c(-c5c(C)ccc6[nH]ncc56)c(C5CC5)cc34)CC2)C1)c1cncnc1` [Compound 21], the inhibition at 1 µM in the test with pERK level in H358 cells was > 90%. Also, the IC50 in the test with H358 cells is < 300 nM.

Turning to `C=CC(=O)N1CC2(CCN(c3nc(OC4CC5CCC4N5C)nc4c(OCC(F)(F)F)c(-c5c(C)ccc6[nH]ncc56)c(C5CC5)cc34)CC2)C1` (stereo not shown) [Compound 308], the inhibition at 1 µM in the test on pERK level in H358 cells is > 90%. Further, the IC50 with H358 cells is < 300 nM.

Consider `C=CC(=O)N1CC2(CCN(c3nc(N4CC(N5CC[C@H](C)C5)C4)nc4c(OCC(F)(F)F)c(-c5c(C)ccc6[nH]ncc56)c(C5CC5)cc34)CC2)C1` [Compound 247], for which, in the test with pERK level in H358 cells, the inhibition at 1 µM was > 90%. In addition, the IC50 with H358 cells was < 300 nM.

On to `C=CC(=O)N1CC2(CCN(c3nc(N4CC(N5CCC[C@@H]5CO)C4)nc4c(OCC(F)(F)F)c(-c5c(C)ccc6[nH]ncc56)c(C5CC5)cc34)CC2)C1` [Compound 251], for which the inhibition at 1 µM with pERK level in H358 cells was > 90%. In addition, the IC50 in the test with H358 cells was < 300 nM.

As for `C=CC(=O)N1CC2(CCN(c3nc(N4CC(N5CCC5)C4)nc4c(OCC(F)(F)F)c(-c5c(C)ccc6[nH]ncc56)c(C=C)cc34)CC2)C1` [Compound 336], the inhibition at 1 µM with pERK level in H358 cells is > 90%. For the same compound, in the test with H358 cells, the IC50 was < 300 nM.

With `C=C(C(=O)N1CC2(CCN(c3nc(OC4CCN(CCOC)CC4)nc4c(OCC(F)(F)F)c(-c5c(C)ccc6[nH]ncc56)c(C5CC5)cc34)CC2)C1)n1cccc1` [Compound 24], in the test on pERK level in H358 cells, the inhibition at 1 µM lay within 50 to 90%. The IC50 in the test on H358 cells was 300 to 1000 nM.

Take `C=CC(=O)N1CC2(CCN(c3nc(N4CC(N5C[C@@H](F)[C@@H](F)C5)C4)nc4c(OCC(F)(F)F)c(-c5c(C)ccc6[nH]ncc56)c(C5CC5)cc34)CC2)C1` [Compound 267]: the inhibition at 1 µM in the test with pERK level in H358 cells was > 90%. The IC50 in the test on H358 cells was < 300 nM.

As for `C=CC(=O)N1CC2(CCN(c3nc(N(C)CCN4CC(OC)C4)nc4c(OCC(F)(F)F)c(-c5c(C)ccc6[nH]ncc56)c(C5CC5)cc34)CC2)C1` [Compound 230], in the test on pERK level in H358 cells, the inhibition at 1 µM fell in the range of 50 to 90%. The IC50 in the test with H358 cells fell in the range of 300 to 1000 nM.

In the case of `C=C(F)C(=O)N1CC2(CCN(c3nc(N4CC5(CCN(CCCOC)CC5)C4)nc4c(OCC(F)(F)F)c(-c5c(C)ccc6[nH]ncc56)c(C5CC5)cc34)CC2)C1` [Compound 96], the inhibition at 1 µM in the test on pERK level in H358 cells was > 90%. In addition, in the test on H358 cells, the IC50 is < 300 nM.

`C=CC(=O)N1CC2(CCN(c3nc(OC4CN5CCC4CC5)nc4c(OCC(F)(F)F)c(-c5c(C)ccc6[nH]ncc56)c(C5CC5)cc34)CC2)C1` (stereo not shown) [Compound 150]: the inhibition at 1 µM in the test with pERK level in H358 cells was > 90%. Further, the IC50 with H358 cells is < 300 nM.

As for `C=CC(=O)N1CC2(CCN(c3nc(N4CC[C@@H](N5CCCC5)C4)nc4c(OCC(F)(F)F)c(-c5c(C)ccc6[nH]ncc56)c(C5CC5)cc34)CC2)C1` [Compound 184], in the test with pERK level in H358 cells, the inhibition at 1 µM is > 90%. In addition, the IC50 with H358 cells is < 300 nM.

As for `C=CC(=O)N1CC2(CCN(c3nc(N4CC(N5CC(F)C5)C4)nc4c(OCC(F)(F)F)c(-c5c(C)ccc6[nH]ncc56)c(C5CC5)cc34)CC2)C1` [Compound 168], the inhibition at 1 µM with pERK level in H358 cells was > 90%. Also, in the test on H358 cells, the IC50 is < 300 nM.

As to `C=CC(=O)N1CC2(CCN(c3nc(N4CC5(C4)[C@@H](N(C)C)CCN5C)nc4c(OCC(F)(F)F)c(-c5c(C)ccc6[nH]ncc56)c(C5CC5)cc34)CC2)C1` [Compound 277], the inhibition at 1 µM with pERK level in H358 cells is > 90%. For the same compound, the IC50 in the test with H358 cells is < 300 nM.

With `C=C(F)C(=O)N1CC2(CCN(c3nc(N4CC5(CCN(CCOC)C5)C4)nc4c(OCC(F)(F)F)c(-c5c(C)ccc6[nH]ncc56)c(C5CC5)cc34)CC2)C1` [Compound 76], the inhibition at 1 µM with pERK level in H358 cells was > 90%. In addition, the IC50 with H358 cells was < 300 nM.

As to `C=C(F)C(=O)N1CC2(CCN(c3nc(N4CC5(CCN(C)C5)C4)nc4c(OCC(F)(F)F)c(-c5c(C)ccc6[nH]ncc56)c(C5CC5)cc34)CC2)C1` [Compound 74], the inhibition at 1 µM in the test with pERK level in H358 cells was > 90%. Besides, the IC50 in the test with H358 cells was < 300 nM.

Consider `C=CC(=O)N1CC2(CCN(c3nc(OC4CN(C)C4)nc4c(OCC(F)(F)F)c(-c5c(C)ccc6[nH]ncc56)c(C5CC5)cc34)CC2)C1` [Compound 109], for which the inhibition at 1 µM in the test with pERK level in H358 cells was > 90%. In addition, the half-maximal inhibitory concentration (IC50) in the test with H358 cells was < 300 nM.

Regarding `C=CC(=O)N1CC2(CCN(c3nc(N4CC5(CSC5)C4)nc4c(OCC(F)(F)F)c(-c5c(C)ccc6[nH]ncc56)c(C5CC5)cc34)CC2)C1` [Compound 304], the inhibition at 1 µM in the test on pERK level in H358 cells was in the range of 50 to 90%. This compound came in with an IC50 with H358 cells of 300 to 1000 nM.

Regarding `C=C(F)C(=O)N1CC2(CCN(c3nc(N4CC5(CCN(CCC#N)CC5)C4)nc4c(OCC(F)(F)F)c(-c5c(C)ccc6[nH]ncc56)c(C5CC5)cc34)CC2)C1` [Compound 88], the inhibition at 1 µM in the test with pERK level in H358 cells was 50 to 90%. The same compound gave an IC50 in the test with H358 cells of 300 to 1000 nM.

As for `C=CC(=O)N1CC2(CCN(c3nc(N4CC5(CCN(CC(F)(F)F)CC5)C4)nc4c(OCC(F)(F)F)c(-c5c(C)ccc6[nH]ncc56)c(C5CC5)cc34)CC2)C1` [Compound 85], in the test with pERK level in H358 cells, the inhibition at 1 µM is > 90%. Also, the IC50 in the test with H358 cells lay in the range of 300 to 1000 nM.

On to `C=CC(=O)N1CC2(CCN(c3nc(N4CC5(CN(C)C5)C4)nc4c(OCC(F)(F)F)c(-c5c(C)ccc6[nH]ncc56)c(C5CC5)cc34)CC2)C1` [Compound 69], for which the inhibition at 1 µM in the test on pERK level in H358 cells was > 90%. Further, in the test on H358 cells, the IC50 is < 300 nM.

Take `C=C(C(=O)N1CC2(CCN(c3nc(OC4CCN(CCOC)CC4)nc4c(OCC(F)(F)F)c(-c5c(C)ccc6[nH]ncc56)c(C5CC5)cc34)CC2)C1)c1cnccn1` [Compound 20]: in the test with pERK level in H358 cells, the inhibition at 1 µM was > 90%. The IC50 in the test on H358 cells is < 300 nM.

In the case of `C=CC(=O)N1CC2(CCN(c3nc(N4CC(N5C6CCC5CC6)C4)nc4c(OCC)c(-c5c(C)ccc6[nH]ncc56)c(C5CC5)cc34)CC2)C1` [Compound 332], the inhibition at 1 µM in the test on pERK level in H358 cells is > 90%. Moreover, in the test on H358 cells, the IC50 was < 300 nM.

For `C=CC(=O)N1CC2(CCN(c3nc(N4CCC5(CC4)CN(CCOC)C5)nc4c(OCC(F)(F)F)c(-c5c(C)ccc6[nH]ncc56)c(C5CC5)cc34)CC2)C1` [Compound 103], in the test with pERK level in H358 cells, the inhibition at 1 µM is > 90%. The half-inhibitory concentration (IC50) in the test on H358 cells was < 300 nM.

With `C=CC(=O)N1CC2(CCN(c3nc(N4CC(N5CCCC5)C4)nc4c(OCC(F)(F)F)c(-c5c(C)ccc6[nH]ncc56)c(C=C)cc34)CC2)C1` [Compound 337], the inhibition at 1 µM in the test on pERK level in H358 cells was > 90%. The IC50 in the test with H358 cells is < 300 nM.

In the case of `C=CC(=O)N1CC2(CCN(c3nc(N4CCC5(CCN(C)CC5)CC4)nc4c(OCC(F)(F)F)c(-c5c(C)ccc6[nH]ncc56)c(C5CC5)cc34)CC2)C1` [Compound 164], the inhibition at 1 µM with pERK level in H358 cells is > 90%. Also, the IC50 with H358 cells is < 300 nM.

As for `C=CC(=O)N1CC2(CCN(c3nc(N4CC[C@@H](N5CC(C)C5)C4)nc4c(OCC(F)(F)F)c(-c5c(C)ccc6[nH]ncc56)c(C5CC5)cc34)CC2)C1` [Compound 297], in the test with pERK level in H358 cells, the inhibition at 1 µM is > 90%. For the same compound, in the test on H358 cells, the IC50 was < 300 nM.
